Test results as given in US5723491A, “Fungicidal composition and method of controlling fungus infestation” (Novartis Corporation, priority 1994, dated 1998).
Where “and” joins values, the source holds several entries; their conditions need not be identical. Identical values can stand only once. Like-named read-outs stand apart in the source and are kept apart here.

How the values were obtained:
[1] = cited from earlier work
[2] = Degradation behaviour in sandy soil under laboratory conditions; parameters: degradation equation Ct, rate constant in exponent: unit: 1/day; conditions: sand
Protocol: Degradation Behaviour of Racemic Metalaxyl and R-metalaxyl in Sandy Soil
Two groups of 16 samples each of biologically active soil (sandy soil; loam: 5.1%; silt: 11.4%; sand: 83.5%; organic carbon: 1.6%; pH 4; biomass: 51 mg microbial carbon/100 g soil; origin: Collombey, Valais, Switzerland)are treated in parallel with racemic metalaxyl or R-metalaxyl, respectively, in each case in acetonic solution. The rate of application is 0.5 mg/kg of soil sample, which corresponds to a rate of application of 0.5 kg/hectare. The results are evaluated in duplicate after 0, 1, 3, 7, 9, 15, 21 and 29 days.

[3] = Degradation behaviour in moderately heavy soil (silt/loam) under laboratory conditions
Protocol: Degradation Behaviour of Racemic Metalaxyl and R-metalaxyl in Moderately Heavy Soil
Two groups of 8 samples each of biologically active soil (silt/loam; loam: 13.9%; silt: 54.3%; sand: 31.8%; organic carbon: 2.1%; pH 7.3; biomass: 65.1 mg microbial carbon per 100 g soil; origin: Les Evouettes, Valais, Switzerland) are treated in parallel with racemic metalaxyl or R-metalaxyl, respectively, in each case in acetonic solution. The rate of application is 0.5 mg/kg of soil sample, which corresponds to a rate of application of 0.5 kg/hectare. The results are evaluated in duplicate after 0, 7, 14 and 21 days.

[4] = test system: metalaxyl-sensitive strain of Plasmopara viticola; assay: Foliar spray on vine plantlets infected with Plasmopara viticola (two-leaf and three-leaf stage sprayings); assay type: in vivo
Protocol: Vine plantlets cv. "Gutedel" are grown under greenhouse conditions using one plant per pot (.O slashed.=6 cm) and sprayed with a spray broth prepared from an emulsion concentrate, either in the two-leaf stage or in the three-leaf stage. The following concentrations of active ingredient are used per batch of 4 plants: 200; 60; 20; 6; 2; 0.6; 0.2; 0.06 mg of a.i./liter. This dilution series is prepared in demineralized water immediately prior to application as a foliar spray. To exclude a gas-phase effect of the a.i. in the vicinity, all plants are separated from each other on the side using translucent plastic foils and kept in the dark for one day at 20°-22° C. and a relative humidity of approximately 100%.
Then, the entire leaf surface area of the plants is uniformly sprayed to drip point with a freshly prepared sporangia suspension (120 000/ml) of a metalaxyl-sensitive strain of Plasmopara viticola. The plants are then kept for 7 days under a 16 hour photoperiod with artificial daylight at 20°-22° C. and a relative humidity of approximately 100%. This is followed by evaluation of the infestation, separating three-leaf and two-leaf stage sprayings. The tables show in each case the average of 4 parallel sprayings.

[5] = day 7, mean of duplicate, 10080 min
[6] = day 7, single sample, 10080 min
[7] = day 21, mean of duplicate, 30240 min
[8] = day 21, single sample, 30240 min

SMILES: COC(=O)C(C)N(C(=O)Cc1ccccc1)c1c(C)cccc1C (racemic) [Benalaxyl, N-(2,6-dimethylphenyl)-N-(phenylacetyl)-DL-alanine methyl ester]
- DT-50 (hydrolytic half-life) ([1]; pH9.25): 86 days

SMILES: COC(=O)C(C)N(C(=O)c1ccco1)c1c(C)cccc1C (racemic) [Furalaxyl, N-(2,6-dimethylphenyl)-N-(2-furanylcarbonyl)-DL-alanine methyl ester]
- DT-50 (hydrolytic half-life) ([1]; 20° C., pH1): > 200 days
- DT-50 (hydrolytic half-life) ([1]; 20° C., pH9): > 200 days

SMILES: COCC(=O)N(c1c(C)cccc1C)[C@H](C)C(=O)OC [R-metalaxyl]
- Rate of degradation (% of applied), mean ([2]; day 0, mean of duplicate): 100.02 % of applied
- Rate of degradation (% of applied) ([2]; day 0, single sample): 100.32 % of applied and 99.72 % of applied
- Rate of degradation (% of applied), mean ([2]; day 1, mean of duplicate, 1440 min): 89.64 % of applied
- Rate of degradation (% of applied) ([2]; day 1, single sample, 1440 min): 89.16 % of applied and 90.13 % of applied
- Rate of degradation (% of applied), mean ([2]; day 3, mean of duplicate, 4320 min): 75.48 % of applied
- Rate of degradation (% of applied) ([2]; day 3, single sample, 4320 min): 76.96 % of applied and 74.01 % of applied
- Rate of degradation (% of applied), mean [2, 5]: 52.59 % of applied
- Rate of degradation (% of applied) [2, 6]: 52.59 % of applied
- Rate of degradation (% of applied), mean ([2]; day 9, mean of duplicate, 12960 min): 46.84 % of applied
- Rate of degradation (% of applied) ([2]; day 9, single sample, 12960 min): 47.22 % of applied and 46.45 % of applied
- Rate of degradation (% of applied), mean ([2]; day 15, mean of duplicate, 21600 min): 27.33 % of applied
- Rate of degradation (% of applied) ([2]; day 15, single sample, 21600 min): 24.77 % of applied and 29.89 % of applied
- Rate of degradation (% of applied), mean [2, 7]: 17.09 % of applied
- Rate of degradation (% of applied) [2, 8]: 17.12 % of applied and 17.05 % of applied
- Rate of degradation (% of applied), mean ([2]; day 29, mean of duplicate, 41760 min): 8.72 % of applied
- Rate of degradation (% of applied) ([2]; day 29, single sample, 41760 min): 8.82 % of applied and 8.62 % of applied
- degradation equation Ct, pre-exponential factor ([2]; first-order fit): 98.54
- degradation equation Ct, rate constant in exponent ([2]; first-order fit, e^(-k*t)): 0.08548
- DT-50 (50% degradation) ([2]; from degradation curve FIG. 2): 8.1 days
- DT-90 (90% degradation) ([2]; from degradation curve FIG. 2): 26.9 days
- Compound remaining in soil (% of applied) ([3]; day 0, mean of duplicate): 96.28 % of applied
- Compound remaining in soil (% of applied) ([3]; day 0, single sample): 93.61 % of applied and 98.94 % of applied
- Compound remaining in soil (% of applied) [3, 5]: 25.23 % of applied
- Compound remaining in soil (% of applied) [3, 6]: 24.74 % of applied and 25.7 % of applied
- Compound remaining in soil (% of applied) ([3]; day 14, mean of duplicate, 20160 min): 9.85 % of applied
- Compound remaining in soil (% of applied) ([3]; day 14, single sample, 20160 min): 9.07 % of applied and 10.62 % of applied
- Compound remaining in soil (% of applied) [3, 7]: 7.69 % of applied
- Compound remaining in soil (% of applied) [3, 8]: 7.57 % of applied and 7.82 % of applied
- degradation equation Ct, pre-exponential factor ([3]; first-order fit): 95.9
- DT-50 (50% degradation) ([3]; from degradation curve FIG. 1): 3.9 days
- DT-90 (90% degradation) ([3]; from degradation curve FIG. 1): 13.0 days
- Foliar infestation ([4]; three-leaf stage, 0.06 mg of a.i./liter, untreated control 92): 93%
- Foliar infestation ([4]; three-leaf stage, 0.2 mg of a.i./liter, untreated control 92): 78%
- Foliar infestation ([4]; three-leaf stage, 0.6 mg of a.i./liter, untreated control 92): 0%
- Foliar infestation ([4]; three-leaf stage, 2 mg of a.i./liter, untreated control 92): 0%
- Foliar infestation ([4]; three-leaf stage, 6 mg of a.i./liter, untreated control 92): 0%
- Foliar infestation ([4]; three-leaf stage, 20 mg of a.i./liter, untreated control 92): 0%
- Foliar infestation ([4]; three-leaf stage, 60 mg of a.i./liter, untreated control 92): 0%
- Foliar infestation ([4]; three-leaf stage, 200 mg of a.i./liter, untreated control 92): 0%
- activity relative to racemic metalaxyl ([4]; three-leaf stage, up to 0.6 mg of a.i./liter): approximately 100 times
- Foliar infestation ([4]; two-leaf stage, 0.06 mg of a.i./liter, untreated control 96): 92%
- Foliar infestation ([4]; two-leaf stage, 0.2 mg of a.i./liter, untreated control 96): 97%
- Foliar infestation ([4]; two-leaf stage, 0.6 mg of a.i./liter, untreated control 96): 78%
- Foliar infestation ([4]; two-leaf stage, 2 mg of a.i./liter, untreated control 96): 4%
- Foliar infestation ([4]; two-leaf stage, 6 mg of a.i./liter, untreated control 96): 0%
- Foliar infestation ([4]; two-leaf stage, 20 mg of a.i./liter, untreated control 96): 0%
- Foliar infestation ([4]; two-leaf stage, 60 mg of a.i./liter, untreated control 96): 0%
- Foliar infestation ([4]; two-leaf stage, 200 mg of a.i./liter, untreated control 96): 0%
- activity relative to racemic metalaxyl ([4]; two-leaf stage, up to dilutions of 2 mg of a.i./liter): up to 30 times
